Data taken from patent US5834457A, “Method of modulating radical formation by mutant cuznsod enzymes” (The Regents of the University of California, priority 1996, dated 1998).

How the values were obtained:
[1] = Hydroxyl radical production from H2O2 by the enzymes or free copper, EPR of DMPO-OH adduct; format: biochemical; settings: for hydroxyl radical production (double integration of DMPO-OH signal): 1.25 μM protein or 2.5 μM CuSO4, 45 mM DMPO, 30 mM H2O2, pH 7.4
Procedure: Hydroxyl radical formation by mutant and wild type CuZnSODs was determined by measuring the amount of adduct formed when the radical scavenging agent 5,5'-dimethyl-1-pyrroline N-oxide (DMPO) was added to the hydroxyl radical forming reaction. The amount of the DMPO-OH radical adduct formed was determined by measurement of the unique EPR spectra signals of the adduct.
30 mM hydrogen peroxide was injected to start the reaction. […] EPR spectra were recorded on a Bruker ER 200 D at room temperature, operated at 9.5 GHz with a modulation frequency of 100 KHz.
The samples were prepared and handled, and all measurements executed, in a strictly oxygen-free atmosphere, to prevent radical scavenging by molecular oxygen. Buffers were treated with Chelex 100 (Biorad) to eliminate the possibility of contamination by trace metals. […] An aqueous flat cell (Wilmad) was used to hold the samples.

[2] = tested on: CSM 14.1 cells expressing mutant CuZnSODs A4V, G37R, G41D, G85R; experiment: Neural cell culture model of FALS: apoptosis/viability after serum withdrawal; format: cell-based, rat; settings: DDC 25-100 μM, all four mutants
Procedure: (§1) The conditionally-immortalized rat nigral neural cell line CSM 14.1 (M. Durand, et al., Soc. Neurosci. Abs. 16:40 (1990); and L. T. Zhong, et al., Proc. Natl. Acad. Sci. U.S.A. 90:4533 (1993)) was transfected with vectors carrying wild type CuZnSOD or the mutant CuZnSODs A4V, G37R, G41D, or G85R.
(§2) Next the […] efficacy of DDC was tested. Temperature-sensitive nigral neural cells (SCM 14.1) were transfected with wild type and A4V, G37R, G85R, and G41D mutant CuZnSOD constructs by methods described previously (Rabizadeh (1995), supra). Following selection in puromycin (7 μg/ml), cells were plated onto 96-well plates.
(§3) This was calculated as follows:
(§4) viability=[Vm(x)-Vm(0)]/[Vc(0)-Vm(0)]
(§5) Standard errors were computed by the delta method for computing the asymptotic standard error for the estimate of a nonlinear function (D. Colquhoun, Lectures on Biostatistics (Clarendon Press, 1971) pp. 39-42).

[3] = tested on: CSM 14.1 cells overexpressing wild type CuZnSOD; experiment: as above; format: cell-based, rat
Procedure: as §1, §2, §3, §4, §5

[4] = tested on: CSM 14.1 cells; experiment: Toxicity of DDC in transfected neural cells, all groups; format: cell-based, rat; settings: DDC 1 mM or greater
Procedure: as §1, §2

## O=S(=O)([O-])[O-].[Cu+2] [CuSO4]
[1]
  hydroxyl radical production (double integration of DMPO-OH signal): 1.9 µM

## CCN(CC)C(=S)S [DDC, Diethyldithiocarbamate]
[2]
  inhibition of apoptosis induced by mutant CuZnSODs: 30-70%
[3]; DDC 100 μM, 60 hours, serum-free media
  effect on viability: no significant effect
[3]; DDC 500 μM
  effect on cell viability: decreased the viability
[3]; DDC 25-100 μM, serum withdrawal
  effect on apoptosis: no effect
[4]
  toxicity in all groups: toxic

## CuZnSOD mutant A4V: FALS-associated mutant human CuZnSOD A4V, recombinant, expressed in yeast
[1]
  hydroxyl radical production (double integration of DMPO-OH signal): 15.6 µM
[1]; fully metallated enzyme, mean ± spread
  DMPO-OH signal relative to the wild type CuZnSOD signal: 3.0±1.1 times
[1]; fully metallated enzyme, range over experiments
  range of DMPO-OH signal relative to the wild type CuZnSOD signal: 2.1-5.7 times

## CuZnSOD mutant G93A: FALS-associated mutant human CuZnSOD G93A, recombinant, expressed in yeast
[1]
  hydroxyl radical production (double integration of DMPO-OH signal): 6.5 µM

## wild type CuZnSOD: recombinant human wild type copper-zinc superoxide dismutase expressed in Saccharomyces cerevisiae
[1]
  hydroxyl radical production (double integration of DMPO-OH signal): 3.2 µM
